Results taken from patent publication US20260176300A1, “N-ARYLPYRAZOLE NOD2 AGONISTS AS PROMOTERS OF IMMUNE CHECKPOINT INHIBITOR THERAPY” (THE SCRIPPS RESEARCH INSTITUTE, priority 2022, published 2026).

Key:
NOD2 = target: T1, NOD2 (Homo sapiens, UniProt Q9HC29); test: NOD2-HEK-Blue NF-κB reporter cell activation assay (NOD2-expressing HEK-293T cells); type: cell-based; details: for EC50: calculated, three-parameter dose-response nonlinear regression, read-out: pEC50 (μM), dose-dependent activation of NOD2-expressing HEK-293T cells (converted)
T1 construct: host or cells: HEK-293T-derived HEK-Blue NF-kB/SEAP reporter cells
Outline: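 HEK-Blue NOD2 reporter cells in HEK-Blue detection medium were exposed to compounds for 8-10 h at 37° C. (or 16 h in complete DMEM, then QUANTI-Blue for 2-4 h). Secreted alkaline phosphatase read by absorbance at 630 nm; pEC50 from three-parameter dose-response nonlinear regression.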

[1] = test system: intratumoral immune cells; test: Single cell transcriptomic profiling of intratumoral immune cells; type: in vivo, mice; details: tumors treated with anti-PD-L1 and compound
Description: N-arylpyrazole NOD2 agonist enhances intratumoral immune responses in vivo. The anti-tumor mechanism of action of the N-arylpyrazole NOD2 agonist in vivo was then further characterized. Infiltrating leukocytes from tumors treated with anti-PD-L1 and either TT030 or TT030-ent were harvested via cell sorting and subjected to single cell transcriptomic profiling (FIG. 4A and FIG. 8). After assignment of cell clusters using well-defined markers, the overall composition of intratumoral immune cells were examined by comparing the relative proportions of each cell cluster. […] In fact, overall expression of both Ifng and Gzmb were elevated in the TT030 sample compared to the enantiomer control (FIG. 9B), indicating heighted CD8^+ T cell activation and effector function. […] To better characterize changes to downstream signaling caused by TT030, differential gene expression and gene set enrichment analyses were performed.
FIG. 4(A-E). NOD2 agonist TT030 remodels intratumoral immune cell composition and elicits broad inflammatory signaling. A, Uniform manifold approximation and projection (UMAP) reduction of single intratumoral immune cells harvested from α-PD-L1 and TT030- and TT030-ent-treated tumors. B-C, Heatmap and quantification of the relative composition of intratumoral immune cell types divided by clusters. D, Quantification of the number of clusters that were enriched for individual Molecular Signature Database (MSigDB) hallmark gene sets. E, Bubble plot for enrichment of curated REACTOME gene sets involving NF-κB or interleukin 1 across cell clusters. For relative composition, absolute cell counts were analyzed by Pearson's chi-square test for count data with Holm's correction for multiple comparisons; exact P values are given. […] NOD activation assays were analyzed using a one-way ANOVA with Dunnett's multiple comparisons test compared to the DMSO control.
FIG. 9(A-B). […] QQ plots were analyzed using a two-sided Wilcoxon rank-sum test; exact P values are given.

T1 sequence (Q9HC29 whole entry): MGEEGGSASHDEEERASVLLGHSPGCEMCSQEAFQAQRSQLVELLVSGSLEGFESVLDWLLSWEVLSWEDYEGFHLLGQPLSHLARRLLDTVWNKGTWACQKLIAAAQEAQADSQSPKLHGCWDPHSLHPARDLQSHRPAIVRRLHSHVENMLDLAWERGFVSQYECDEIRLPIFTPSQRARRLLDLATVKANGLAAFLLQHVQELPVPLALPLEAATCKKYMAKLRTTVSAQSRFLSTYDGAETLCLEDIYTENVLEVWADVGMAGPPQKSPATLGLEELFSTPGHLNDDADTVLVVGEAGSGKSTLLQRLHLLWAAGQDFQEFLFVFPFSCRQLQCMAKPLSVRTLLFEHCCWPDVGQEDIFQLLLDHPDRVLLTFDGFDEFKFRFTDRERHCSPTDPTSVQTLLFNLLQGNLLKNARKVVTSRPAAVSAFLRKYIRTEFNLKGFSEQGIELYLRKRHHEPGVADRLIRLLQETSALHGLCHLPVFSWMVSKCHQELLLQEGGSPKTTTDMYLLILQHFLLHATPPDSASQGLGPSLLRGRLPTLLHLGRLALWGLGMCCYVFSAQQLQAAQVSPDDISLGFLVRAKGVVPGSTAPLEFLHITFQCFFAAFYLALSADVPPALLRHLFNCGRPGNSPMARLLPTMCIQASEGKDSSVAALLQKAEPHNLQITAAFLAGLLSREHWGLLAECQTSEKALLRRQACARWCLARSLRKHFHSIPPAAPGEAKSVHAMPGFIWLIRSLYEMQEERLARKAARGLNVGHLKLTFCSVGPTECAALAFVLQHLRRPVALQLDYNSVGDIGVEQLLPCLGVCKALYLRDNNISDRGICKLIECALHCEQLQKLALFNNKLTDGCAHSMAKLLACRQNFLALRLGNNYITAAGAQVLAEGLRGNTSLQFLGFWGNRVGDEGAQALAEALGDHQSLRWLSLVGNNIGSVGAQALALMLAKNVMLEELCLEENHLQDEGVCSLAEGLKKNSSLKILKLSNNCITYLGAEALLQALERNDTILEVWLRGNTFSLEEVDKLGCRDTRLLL

EC50 (NOD2)	lipophilic ligand efficiency (LLE) (NOD2; calculated pEC50 vs. clogP, FIG. 2G)	Structure (SMILES)	Inflammatory, immune activation and metabolic pathways (IFNα, IFNγ response, NF-κB signaling), gene set enrichment [1]	Amount of T cell cluster expressing Cd8a, Ifng, Gzmb and Mki67 ([1]; vs. TT030-ent)	Overall expression of Ifng and Gzmb ([1]; vs. enantiomer control)
0.126 µM		CC(=O)N[C@H]1C(O)O[C@H](CO)[C@@H](O)[C@@H]1O[C@H](C)C(=O)N[C@@H](C)C(=O)N[C@H](CCC(=O)O)C(N)=O (stereo partly drawn) [MDP, (4R)-4-((2S)-2-((2R)-2-(((3R,4R,5S,6R)-3-acetamido-2,5-dihydroxy-6-(hydroxymethyl)tetrahydro-2H-pyran-4-yl)oxy)propanamido)propanamido)-5-amino-5-oxopentanoic acid, reference compound]			
0.251 µM	6.81	CCOC(=O)CC[C@@H](NC(=O)[C@@H](NC(=O)c1c(C)nn(-c2cc[nH]c(=O)c2)c1C)C(C)C)C(=O)OCC [TT030, Diethyl (3,5-dimethyl-1-(2-oxo-1,2-dihydropyridin-4-yl)-1H-pyrazole-4-carbonyl)-L-valyl-D-glutamate]	upregulated	significant increase	elevated
